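In this assay, cells in 96-well plates receive the compound at five concentrations for 48 hours. Endpoints are linearly interpolated between the surrounding concentrations. GI50 = concentration required for 50% inhibition of growth.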 Calls of active or inactive are those of the source. Rule as the data show it: active = GI50 up to about 1.1 µM and inactive = higher.
Legend:
Test in all cases: NCI tumour cell line growth inhibition, 48 h
A549 = system: A549
SK-MEL-5 = system: SK-MEL-5
LOX IMVI = system: LOX IMVI
EKVX = system: EKVX
786-0 = system: 786-0
CAKI-1 = system: CAKI-1
SNB-75 = system: SNB-75
OVCAR-3 = system: OVCAR-3
OVCAR-4 = system: OVCAR-4
SW-620 = system: SW-620
SF-295 = system: SF-295
SF-268 = system: SF-268
SNB-19 = system: SNB-19
A498 = system: A498
COLO 205 = system: COLO 205
NCI/ADR-RES = system: NCI/ADR-RES
T47D = system: T47D
BT-549 = system: BT-549
PC-3 = system: PC-3
MDA-N = system: MDA-N

| SMILES | GI50 (A549) | GI50 (SK-MEL-5) | GI50 (LOX IMVI) | GI50 (EKVX) | GI50 (786-0) | GI50 (CAKI-1) | GI50 (SNB-75) | GI50 (OVCAR-3) | GI50 (OVCAR-4) | GI50 (SW-620) | GI50 (SF-295) | GI50 (SF-268) | GI50 (SNB-19) | GI50 (A498) | GI50 (COLO 205) | GI50 (NCI/ADR-RES) | GI50 (T47D) | GI50 (BT-549) | GI50 (PC-3) | GI50 (MDA-N) |
| --- | --- | --- | --- | --- | --- | --- | --- | --- | --- | --- | --- | --- | --- | --- | --- | --- | --- | --- | --- | --- |
| Cc1ccc(S(=O)OC2C3CC4CC(C3)CC2C4)cc1 (stereo not drawn) | > 100 µM (inactive) | > 100 µM (inactive) | > 100 µM (inactive) | > 100 µM (inactive) | > 100 µM (inactive) | > 100 µM (inactive) | > 100 µM (inactive) | > 100 µM (inactive) | > 100 µM (inactive) | > 100 µM (inactive) | > 100 µM (inactive) | > 100 µM (inactive) | > 100 µM (inactive) | > 100 µM (inactive) | > 100 µM (inactive) |  |  |  |  |  |
| CCc1n[nH]c(=O)n1N | > 100 µM (inactive) | > 100 µM (inactive) | > 100 µM (inactive) | > 100 µM (inactive) | > 100 µM (inactive) | > 100 µM (inactive) | > 100 µM (inactive) | > 100 µM (inactive) | > 100 µM (inactive) | > 100 µM (inactive) | > 100 µM (inactive) | > 100 µM (inactive) | > 100 µM (inactive) | > 100 µM (inactive) | > 100 µM (inactive) | > 100 µM (inactive) | > 100 µM (inactive) | > 100 µM (inactive) | > 100 µM (inactive) |  |
| CCN(CCCl)c1cc(CN(C)C)cc(NC(=O)c2ccc(C(=O)Nc3cccc(CN(C)C)c3)cc2)c1 | 2.2 µM (inactive) | 0.213 µM (active) | 0.201 µM (active) |  | 0.383 µM (active) | 32.6 µM (inactive) | 0.695 µM (active) |  | 0.607 µM (active) | 0.225 µM (active) | 1.36 µM (inactive) | 0.364 µM (active) | 0.286 µM (active) | 2.65 µM (inactive) | 1.13 µM (inactive) | > 100 µM (inactive) | 1.91 µM (inactive) |  | 0.305 µM (active) | 0.29 µM (active) |
| COc1cc2c(cc1OCCCCOc1cc(-c3ccc(F)cc3)nc(C)n1)N=C[C@@H]1CCCN1C2=O | 1.15 µM (inactive) | 0.593 µM (active) | 0.166 µM (active) | 1.66 µM (inactive) | 0.486 µM (active) | 0.313 µM (active) | 0.723 µM (active) | 0.336 µM (active) | 0.26 µM (active) | 0.855 µM (active) | 0.303 µM (active) | 0.771 µM (active) | 0.689 µM (active) | 1.01 µM (active) | 0.346 µM (active) | 0.45 µM (active) | 0.294 µM (active) | 0.579 µM (active) | 0.759 µM (active) |  |
| COc1cc2cnc(-c3ccccc3)cc2cc1OC | 28.5 µM (inactive) | 11.8 µM (inactive) |  | 3.22 µM (inactive) | 36.4 µM (inactive) | 20.7 µM (inactive) | 41.1 µM (inactive) | 24.3 µM (inactive) | 24.3 µM (inactive) | 32.4 µM (inactive) | 19.5 µM (inactive) | 35.7 µM (inactive) | 24.9 µM (inactive) | 0.252 µM (active) | 20.9 µM (inactive) | 26 µM (inactive) | 26.7 µM (inactive) | 23.2 µM (inactive) | 23 µM (inactive) |  |
| Nn1c(CCCl)nc2c(Br)cc(Br)cc2c1=O | 43.7 µM (inactive) | 17.3 µM (inactive) | 25.5 µM (inactive) | 29.8 µM (inactive) | 27.7 µM (inactive) | 30.7 µM (inactive) | 27.8 µM (inactive) | 9.62 µM (inactive) | 19.1 µM (inactive) | 20.5 µM (inactive) | 31.7 µM (inactive) | 37.1 µM (inactive) | 51.9 µM (inactive) | 35.7 µM (inactive) | 23.9 µM (inactive) |  |  |  |  |  |
| Cc1c(Cl)ccc2c1NC(=O)C2(O)CC(=O)c1ccc2ccccc2c1 (stereo not drawn) | 53.3 µM (inactive) | > 10 µM (inactive) | 44.7 µM (inactive) | 84.7 µM (inactive) | 29 µM (inactive) | 42 µM (inactive) | 14.2 µM (inactive) | 33.4 µM (inactive) | 46.9 µM (inactive) | 47.8 µM (inactive) | 88.3 µM (inactive) | 32.1 µM (inactive) | 45.8 µM (inactive) | > 100 µM (inactive) | 85.3 µM (inactive) |  |  |  |  |  |
| COc1ccc(CNc2nc3c(NC(C)=O)cc(C(F)(F)F)cc3nc2-c2ccccc2)cc1OC | 47.9 µM (inactive) | 21.5 µM (inactive) | > 100 µM (inactive) | 35.6 µM (inactive) | 37.1 µM (inactive) | 31.6 µM (inactive) | 1.32 µM (inactive) | 93.1 µM (inactive) | 10.6 µM (inactive) | 77.3 µM (inactive) | 50 µM (inactive) | 5.68 µM (inactive) | 45.6 µM (inactive) | > 100 µM (inactive) | > 100 µM (inactive) |  |  |  |  |  |

— ChEMBL document CHEMBL1201862, “PubChem BioAssay data set” (2004)
